Key:
[1] = test system: rat liver cDNAs SEQ ID NOs: 1-61; assay type: in vivo, Han/Wistar rat; conditions: Strain HW; for Maximum Abundance, SEQ ID NO 14, Clone ID 700330824: Sex F
[2] = test system: rat liver cDNAs SEQ ID NOs: 1-61; assay type: in vivo, Han/Wistar rat; conditions: Strain HW, Sex F
[3] = test system: rat liver cDNAs SEQ ID NOs: 62-202; assay: Abundance of cDNA clones in toxin-treated rat liver cDNA libraries (transcript imaging), Sprague-Dawley; assay type: in vivo; conditions: Strain SD
Experimental: Columns 1 and 2 show the SEQ ID NO and Clone ID of the rat cDNA clone, respectively.
Abundance of a clone was determined by counting the number of clones present in a master cluster.
Abundance of a particular cDNA in the library profile was determined by summing the total number of copies of the clones present in the master cluster in that library.

NN [Hydra, hydrazine]
4: Maximum Abundance, SEQ ID NO 17, Clone ID 700059927 [1] | Maximum Abundance, SEQ ID NO 32, Clone ID 700144406 [1] | Maximum Abundance, SEQ ID NO 61, Clone ID 701637512 [1] | Maximum Abundance, SEQ ID NO 13, Clone ID 700135749 [2]
3: Maximum Abundance, SEQ ID NO 23, Clone ID 700067778 [1] | Maximum Abundance, SEQ ID NO 24, Clone ID 700123633 [1] | Maximum Abundance, SEQ ID NO 28, Clone ID 700135850 [1] | Maximum Abundance, SEQ ID NO 12, Clone ID 700062506 [2]
7: Maximum Abundance, SEQ ID NO 33, Clone ID 700175249 [1]

CC(C)OC(=O)C(C)(C)Oc1ccc(C(=O)c2ccc(Cl)cc2)cc1 [Feno, fenofibrate]
3: Maximum Abundance, SEQ ID NO 20, Clone ID 700063569 [1] | Maximum Abundance, SEQ ID NO 30, Clone ID 700140375 [1] | Maximum Abundance, SEQ ID NO 35, Clone ID 700179766 [1] | Maximum Abundance, SEQ ID NO 37, Clone ID 700182016 [1] | Maximum Abundance, SEQ ID NO 38, Clone ID 700185871 [1] | Maximum Abundance, SEQ ID NO 39, Clone ID 700198357 [1] | Maximum Abundance, SEQ ID NO 42, Clone ID 700250877 [1] | Maximum Abundance, SEQ ID NO 55, Clone ID 701197728 [1] | Maximum Abundance, SEQ ID NO 60, Clone ID 701597659 [1]
5: Maximum Abundance, SEQ ID NO 49, Clone ID 700478138 [1] | Maximum Abundance, SEQ ID NO 53, Clone ID 700818852 [1]
8: Maximum Abundance, SEQ ID NO 31, Clone ID 700140450 [1] | Maximum Abundance, SEQ ID NO 54, Clone ID 700937735 [1]
4: Maximum Abundance, SEQ ID NO 40, Clone ID 700230123 [1] | Maximum Abundance, SEQ ID NO 45, Clone ID 700305380 [1] | Maximum Abundance, SEQ ID NO 13, Clone ID 700135749 [2]

c1ccc2c(c1)cc1ccc3cccc4ccc2c1c34 [benzo(a)pyrene]
4: Maximum Abundance, SEQ ID NO 6, Clone ID 700062791 [1] | Maximum Abundance, SEQ ID NO 8, Clone ID 700312413 [1] | Maximum Abundance, SEQ ID NO 79, Clone ID 700175783 [3] | Maximum Abundance, SEQ ID NO 80, Clone ID 700176825 [3] | Maximum Abundance, SEQ ID NO 81, Clone ID 700177142 [3] | Maximum Abundance, SEQ ID NO 84, Clone ID 700246085 [3] | Maximum Abundance, SEQ ID NO 88, Clone ID 700323326 [3] | Maximum Abundance, SEQ ID NO 89, Clone ID 700328990 [3] | Maximum Abundance, SEQ ID NO 101, Clone ID 701432276 [3] | Maximum Abundance, SEQ ID NO 106, Clone ID 701710808 [3] | Maximum Abundance, SEQ ID NO 111, Clone ID 700269330 [3] | Maximum Abundance, SEQ ID NO 202, Clone ID 700490891 [3] | Maximum Abundance, SEQ ID NO 75, Clone ID 701709967 ([3]; Sex F)
6: Maximum Abundance, SEQ ID NO 7, Clone ID 700250279 [1] | Maximum Abundance, SEQ ID NO 9, Clone ID 700308908 [1] | Maximum Abundance, SEQ ID NO 91, Clone ID 700363445 [3] | Maximum Abundance, SEQ ID NO 186, Clone ID 700068662 [3]
1: Maximum Abundance, SEQ ID NO 193, Clone ID 700858043 ([3]; Sex F)
7: Maximum Abundance, SEQ ID NO 74, Clone ID 700137978 ([3]; Sex F)
10: Maximum Abundance, SEQ ID NO 85, Clone ID 700302152 [3]
11: Maximum Abundance, SEQ ID NO 109, Clone ID 700250903 ([3]; Sex M)
3: Maximum Abundance, SEQ ID NO 76, Clone ID 700059750 [3] | Maximum Abundance, SEQ ID NO 77, Clone ID 700123903 [3] | Maximum Abundance, SEQ ID NO 78, Clone ID 700135554 [3] | Maximum Abundance, SEQ ID NO 82, Clone ID 700185570 [3] | Maximum Abundance, SEQ ID NO 83, Clone ID 700244879 [3] | Maximum Abundance, SEQ ID NO 87, Clone ID 700307329 [3] | Maximum Abundance, SEQ ID NO 90, Clone ID 700330391 [3] | Maximum Abundance, SEQ ID NO 92, Clone ID 700480903 [3] | Maximum Abundance, SEQ ID NO 93, Clone ID 700482908 [3] | Maximum Abundance, SEQ ID NO 94, Clone ID 700935261 [3] | Maximum Abundance, SEQ ID NO 95, Clone ID 700939101 [3] | Maximum Abundance, SEQ ID NO 96, Clone ID 700950626 [3] | Maximum Abundance, SEQ ID NO 97, Clone ID 701316308 [3] | Maximum Abundance, SEQ ID NO 98, Clone ID 701316810 [3] | Maximum Abundance, SEQ ID NO 99, Clone ID 701327688 [3] | Maximum Abundance, SEQ ID NO 100, Clone ID 701337820 [3] | Maximum Abundance, SEQ ID NO 102, Clone ID 701432317 [3] | Maximum Abundance, SEQ ID NO 103, Clone ID 701472012 [3] | Maximum Abundance, SEQ ID NO 104, Clone ID 701472036 [3] | Maximum Abundance, SEQ ID NO 105, Clone ID 701517108 [3] | Maximum Abundance, SEQ ID NO 107, Clone ID 701241446 [3] | Maximum Abundance, SEQ ID NO 201, Clone ID 700062503 [3] | Maximum Abundance, SEQ ID NO 191, Clone ID 700146747 ([3]; Sex F) | Maximum Abundance, SEQ ID NO 197, Clone ID 700124248 ([3]; Sex M) | Maximum Abundance, SEQ ID NO 200, Clone ID 700282789 ([3]; Sex M)
2: Maximum Abundance, SEQ ID NO 188, Clone ID 700024288 ([3]; Sex F) | Maximum Abundance, SEQ ID NO 190, Clone ID 700066933 ([3]; Sex F) | Maximum Abundance, SEQ ID NO 196, Clone ID 700062747 ([3]; Sex M)
5: Maximum Abundance, SEQ ID NO 108, Clone ID 701711993 [3] | Maximum Abundance, SEQ ID NO 110, Clone ID 700192259 [3] | Maximum Abundance, SEQ ID NO 112, Clone ID 701317696 [3] | Maximum Abundance, SEQ ID NO 187, Clone ID 700933309 [3]
13: Maximum Abundance, SEQ ID NO 86, Clone ID 700305538 [3]

ClC(Cl)(Cl)Cl [CCI4, carbon tetrachloride]
4: Maximum Abundance, SEQ ID NO 18, Clone ID 700060675 [1] | Maximum Abundance, SEQ ID NO 27, Clone ID 700135733 [1] | Maximum Abundance, SEQ ID NO 29, Clone ID 700137416 [1] | Maximum Abundance, SEQ ID NO 32, Clone ID 700144406 [1] | Maximum Abundance, SEQ ID NO 40, Clone ID 700230123 [1] | Maximum Abundance, SEQ ID NO 45, Clone ID 700305380 [1] | Maximum Abundance, SEQ ID NO 61, Clone ID 701637512 [1]
3: Maximum Abundance, SEQ ID NO 16, Clone ID 700024834 [1] | Maximum Abundance, SEQ ID NO 23, Clone ID 700067778 [1] | Maximum Abundance, SEQ ID NO 24, Clone ID 700123633 [1] | Maximum Abundance, SEQ ID NO 25, Clone ID 700127949 [1] | Maximum Abundance, SEQ ID NO 28, Clone ID 700135850 [1] | Maximum Abundance, SEQ ID NO 30, Clone ID 700140375 [1] | Maximum Abundance, SEQ ID NO 34, Clone ID 700177158 [1] | Maximum Abundance, SEQ ID NO 36, Clone ID 700181614 [1] | Maximum Abundance, SEQ ID NO 37, Clone ID 700182016 [1] | Maximum Abundance, SEQ ID NO 38, Clone ID 700185871 [1] | Maximum Abundance, SEQ ID NO 39, Clone ID 700198357 [1] | Maximum Abundance, SEQ ID NO 41, Clone ID 700248367 [1] | Maximum Abundance, SEQ ID NO 42, Clone ID 700250877 [1] | Maximum Abundance, SEQ ID NO 43, Clone ID 700253694 [1] | Maximum Abundance, SEQ ID NO 44, Clone ID 700303850 [1] | Maximum Abundance, SEQ ID NO 46, Clone ID 700313077 [1] | Maximum Abundance, SEQ ID NO 47, Clone ID 700361225 [1] | Maximum Abundance, SEQ ID NO 48, Clone ID 700363174 [1] | Maximum Abundance, SEQ ID NO 50, Clone ID 700480077 [1] | Maximum Abundance, SEQ ID NO 52, Clone ID 700491990 [1] | Maximum Abundance, SEQ ID NO 56, Clone ID 701257766 [1] | Maximum Abundance, SEQ ID NO 58, Clone ID 701574951 [1] | Maximum Abundance, SEQ ID NO 59, Clone ID 701578278 [1] | Maximum Abundance, SEQ ID NO 60, Clone ID 701597659 [1] | Maximum Abundance, SEQ ID NO 14, Clone ID 700330824 [1]
8: Maximum Abundance, SEQ ID NO 31, Clone ID 700140450 [1] | Maximum Abundance, SEQ ID NO 54, Clone ID 700937735 [1]
7: Maximum Abundance, SEQ ID NO 26, Clone ID 700132557 [1] | Maximum Abundance, SEQ ID NO 33, Clone ID 700175249 [1]
5: Maximum Abundance, SEQ ID NO 19, Clone ID 700062240 [1] | Maximum Abundance, SEQ ID NO 49, Clone ID 700478138 [1] | Maximum Abundance, SEQ ID NO 53, Clone ID 700818852 [1]

S=C=Nc1cccc2ccccc12 [ANIT, α-naphthylisothiocyanate]
4: Maximum Abundance, SEQ ID NO 17, Clone ID 700059927 [1] | Maximum Abundance, SEQ ID NO 18, Clone ID 700060675 [1] | Maximum Abundance, SEQ ID NO 29, Clone ID 700137416 [1] | Maximum Abundance, SEQ ID NO 32, Clone ID 700144406 [1] | Maximum Abundance, SEQ ID NO 40, Clone ID 700230123 [1] | Maximum Abundance, SEQ ID NO 45, Clone ID 700305380 [1] | Maximum Abundance, SEQ ID NO 61, Clone ID 701637512 [1]
3: Maximum Abundance, SEQ ID NO 15, Clone ID 700024728 [1] | Maximum Abundance, SEQ ID NO 16, Clone ID 700024834 [1] | Maximum Abundance, SEQ ID NO 20, Clone ID 700063569 [1] | Maximum Abundance, SEQ ID NO 21, Clone ID 700064131 [1] | Maximum Abundance, SEQ ID NO 23, Clone ID 700067778 [1] | Maximum Abundance, SEQ ID NO 24, Clone ID 700123633 [1] | Maximum Abundance, SEQ ID NO 34, Clone ID 700177158 [1] | Maximum Abundance, SEQ ID NO 35, Clone ID 700179766 [1] | Maximum Abundance, SEQ ID NO 36, Clone ID 700181614 [1] | Maximum Abundance, SEQ ID NO 38, Clone ID 700185871 [1] | Maximum Abundance, SEQ ID NO 39, Clone ID 700198357 [1] | Maximum Abundance, SEQ ID NO 41, Clone ID 700248367 [1] | Maximum Abundance, SEQ ID NO 48, Clone ID 700363174 [1] | Maximum Abundance, SEQ ID NO 50, Clone ID 700480077 [1] | Maximum Abundance, SEQ ID NO 51, Clone ID 700483222 [1] | Maximum Abundance, SEQ ID NO 55, Clone ID 701197728 [1] | Maximum Abundance, SEQ ID NO 56, Clone ID 701257766 [1] | Maximum Abundance, SEQ ID NO 57, Clone ID 701341861 [1] | Maximum Abundance, SEQ ID NO 60, Clone ID 701597659 [1] | Maximum Abundance, SEQ ID NO 14, Clone ID 700330824 [1] | Maximum Abundance, SEQ ID NO 12, Clone ID 700062506 [2]
5: Maximum Abundance, SEQ ID NO 19, Clone ID 700062240 [1] | Maximum Abundance, SEQ ID NO 49, Clone ID 700478138 [1] | Maximum Abundance, SEQ ID NO 53, Clone ID 700818852 [1]
8: Maximum Abundance, SEQ ID NO 31, Clone ID 700140450 [1] | Maximum Abundance, SEQ ID NO 54, Clone ID 700937735 [1]
7: Maximum Abundance, SEQ ID NO 33, Clone ID 700175249 [1]

From patent US20030165854A1, “Marker genes responding to treatment with toxins” (priority 2000, published 2003)
